Our source for the IC50 and AC50 values is patent US12606541B2, “PPARg modulators and methods of use” (Eisai R&D Management Co., Ltd., priority 2020, dated 2026).

Molecules are shown by their SMILES. pIC50: −log10 of the molar value. Like-named read-outs stand apart in the source and are kept apart here.

Experiment [1] has as its system UM-UC-9 engineered cells. The experiment can be described thus: Cell proliferation / short-term viability assay, CellTiter-Glo 144 h. As to conditions: read-out: CTGlo 144 h UMUC9.5, G150. The format is cell-based, human. The gist of the method: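 UM-UC-9 engineered assay-ready cells seeded at 500 cells/well in high-glucose DMEM/10% FBS, treated from dose-response plates, grown at 37° C, 5% CO2. CellTiter-Glo 2.0 luminescence read on day 7, with a day-0 pretreatment plate as T0 reference and DMSO wells as negative control.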
In general terms: In ATP-based viability assays light output follows the ATP content of the culture.

Experiment [2] concerns the target T1, His6-TEV-PPARγ-(234-505) (Homo sapiens, UniProt P37231).
T1 construct: The His6-TEV-PPARγ-(234-505) protein for assay was expressed and purified; TEV cleavage site (N); made in house
T1 sequence (P37231 234-505): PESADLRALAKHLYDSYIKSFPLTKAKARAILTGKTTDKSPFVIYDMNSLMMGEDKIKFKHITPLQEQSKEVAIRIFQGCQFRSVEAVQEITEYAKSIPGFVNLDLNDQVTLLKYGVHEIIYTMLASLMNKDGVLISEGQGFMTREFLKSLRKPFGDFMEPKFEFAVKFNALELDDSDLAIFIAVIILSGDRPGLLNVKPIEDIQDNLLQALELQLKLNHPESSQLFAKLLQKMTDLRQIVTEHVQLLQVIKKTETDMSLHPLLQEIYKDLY
Briefly: TR-FRET Assay to Measure Co-R Peptide Recruitment to PPARγ. Format: biochemical. As to conditions: Co-R peptide (SMRT-ID2) recruitment; top final concentration 20 μM; read-out: TR-FRET i-Ag; AC50. The gist of the method:
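His-tagged PPARγ (or controls) was preincubated with compound for 20 minutes at room temperature, then 5 nM anti-His terbium antibody and 200 nM FITC-labeled SMRT-ID2 corepressor peptide (final) were added for a further hour. TR-FRET signal was normalized to percent response using 500 nM T0070907 and DMSO controls.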
Background: In TR-FRET formats the signal depends on donor and acceptor labels being close together.

For the compound `COc1cc(-c2cc(C(=O)N3CCC(C(=O)NC4CCC(C(F)(F)F)C(O)C4)CC34CC4)n[nH]2)c(F)cn1` (mixture of isomers) [Example 501, (S)-4-(5-(5-fluoro-2-methoxypyridin-4-yl)-1H-pyrazole-3-carbonyl)-N-((1R,3R,4S)-3-hydroxy-4-(trifluoromethyl)cyclohexyl)-4-azaspiro[2.5]octane-7-carboxamide and (S)-4-(5-(5-fluoro-2-methoxypyridin-4-yl)-1H-pyrazole-3-carbonyl)-N-((1S,3S,4R)-3-hydroxy-4-(trifluoromethyl)cyclohexyl)-4-azaspiro[2.5]octane-7-carboxamide], in experiment [1], the pIC50 is 7.89. In addition, the AC50 in experiment [2] worked out at 0.0054 µM.

Turning to `COc1cc(-c2cc(C(=O)N3CC[C@H](C(=O)NC4CCC5(CCCN5CC(C)(F)F)CC4)CC34CC4)n[nH]2)c(F)cn1` (stereo partly drawn) [Example 351, (S)—N-(1-(2,2-difluoropropyl)-1-azaspiro[4.5]decan-8-yl)-4-(5-(5-fluoro-2-methoxypyridin-4-yl)-1H-pyrazole-3-carbonyl)-41-azaspiro[2.5]octane-7-carboxamide], the pIC50 in experiment [1] (Homo sapiens, UM-UC-9, 144 h) is 6.35. The AC50 in experiment [2] amounted to 0.256 µM.

`Cc1cc(-c2cc(C(=O)N3[C@@H]4CC[C@H]3C[C@H](C(=O)NCc3cccc(Cl)c3)C4)n[nH]2)c(F)cn1` [Example 268, (1R,3S,5S)—N-[(3-chlorophenyl)methyl]-8-[5-(5-fluoro-2-methylpyridin-4-yl)-1H-pyrazole-3-carbonyl]-8-azabicyclo[3.2.1]octane-3-carboxamide]: the pIC50 in experiment [1] (Homo sapiens, UM-UC-9, 144 h) is 7.44. The AC50 in experiment [2] came to 0.007 µM.

Consider `COc1cc(-c2cc(C(=O)N3CC[C@H](C(=O)NC4CN(C5CCOC5)C4)CC34CC4)n[nH]2)c(F)cn1` (single isomer, unassigned) [Example 433-B], for which, in experiment [1], the pIC50 is 6.60. The AC50 in experiment [2] was determined as 0.0611 µM.

For `COc1cc(-c2cc(C(=O)N3CC[C@H](C(=O)NCc4cccc(Cl)c4)CC3(C)C)n[nH]2)c(Cl)cn1` (single isomer, unassigned) [Example 255-A], the pIC50 in experiment [1] (Homo sapiens, UM-UC-9, 144 h) is 6.85. The AC50 in experiment [2] is 0.0496 µM.

For the compound `CCO[C@]1(C(F)(F)F)CC[C@@H](NC(=O)[C@@H]2CCN(C(=O)c3cc(-c4cc(OC)ncc4F)[nH]n3)C3(CC3)C2)CC1` (single isomer, unassigned) [Example 312-A], the pIC50 in experiment [1] (Homo sapiens, UM-UC-9, 144 h) was 6.31. Also, in experiment [2], the AC50 is 0.172 µM.
